Series [1] concerns Neonatal rat cardiomyocytes. In words: Screening purified venom fractions for alterations to cardiomyocyte beat rates. It is filed as cell-based. Particulars: for Highest Achieved Fold Increases in Beat Rate: 1 h; for fold increases to beat rate: dose of 6 μg/ml. The method, then:
Neonatal rat cardiomyocytes were isolated as via standard protocol and seeded at a density of 100,000 cells/96 well. Once myocyte cultures were beating spontaneously in uniform sheets, they were videoed well-by-well using a microscope camera to determine pre-dose beat rates/min. […] Cells were incubated in each fraction in a humidified incubator at 37° C., 5% CO2 for 1 h. After 1 h videos of the cells were re-recorded to obtain the post-dosing beat rate/minute. Fold changes in beat frequency were calculated for each dosed well pair.

The test system of series [2] is Human IPSC-derived cardiomyocytes. In words: Six lead fractions: toxicity to human IPSC-derived cardiomyocytes (resazurin). It is filed as cell-based. Particulars: for cytotoxicity against human IPSC-derived cardiomyocytes: 7.5, 6, 3.5, 2.5 and 1 μg/ml, 2 h, FIG. 3. The method, then: Human IPSC-derived cardiomyocytes were purchased from Axol Biosciences and cultured as via their standard methodology. Briefly, cells were recovered from liquid nitrogen storage when required and the cells transferred dropwise into 10 ml of pre-warmed (37° C.) plating media (cardiomyocyte maintenance media+10% FCS+10 μM ROCK inhibitor). Cells were centrifuged at 200×g for 5 mins at room temperature. The supernatant was aspirated from the cell pellet and the cell pellet gently resuspended in 1 ml plating media. Cells were counted using a haemocytometer and trypan blue staining. Cells were plated at a seeding density of 10-20,000 cells/well in fibronectin pre-coated 384 well plates. Cells were incubated at 37° C., 5% CO2 in a humidified incubator overnight before the plating media was removed the following day and replace with fresh maintenance media (No FCS, no ROCK inhibitor). Partial media changes were performed every 2-days until cells formed a single continuous sheet of spontaneously beating cardiomyocytes (7-10 day in culture).
Once beating spontaneously, cells were treated with the six lead fractions diluted in maintenance media to final working concentrations of 7.5, 6, 3.5, 2.5 and 1 μg/ml. 30 μl of each fraction dilution was added to triplicate wells of cells and incubated for 2 h at 37° C., 5% CO2 in a humidified incubator. After 2 h, resazurin dye at a final working concentration of 160 μM were added to all wells and the change in fluorescence of the plate monitored over a 5 h timeframe using a BMG Labtech Fluostar plate reader. Percent toxicity was calculated from triplicate wells at each dose and plotted graphically.
Human IPSC derived cardiomyocytes were dosed in triplicate with a serial dilution of each of the six venom fractions (7.5, 6, 3.5, 2.5 and 1 μg/ml) for 2 hs at 37° C., 5% CO2 before resazurin dye was added and the change in colour and fluorescence monitored for the following 5 hrs. Percentage toxicity was calculated for each fraction at all doses and plotted graphically (FIG. 3).
In general terms: Alamar Blue is a resazurin reagent that responds to reducing activity.

The test system of series [3] is Caco-2 cells. Kind of series: Caco-2 permeability assay (bi-directional). The settings on record: positive control. How it is done: Cells were seeded on to Millipore Multiscreen Transwell plates at 1×10^5 cells/cm^2. The cells were cultured in DMEM and media was changed every two or three days. On day 20, the permeability study was performed. […] On the day of the assay, the monolayers were prepared by rinsing both basolateral and apical surfaces twice with Hanks Balanced Salt Solution (HBSS) at the desired pH warmed to 37° C. Cells were then incubated with HBSS at the desired pH in both apical and basolateral compartments for 40 min to stabilise physiological parameters.
The fluorescent integrity marker lucifer yellow was also included in the dosing solution. Analytical standards were prepared from test compound water dilutions and transferred to buffer, maintaining a ≤1% v/v water concentration. Assay buffer was composed of supplemented HBSS pH 7.4.
For assessment of apical to basolateral (A2B) permeability, HBSS was removed from the apical compartment and replaced with test compound dosing solution. The apical compartment insert was then placed into a companion plate containing fresh buffer (containing ≤1% v/v Water). For assessment of B2A permeability, HBSS was removed from the companion plate and replaced with test compound dosing solution. Fresh buffer (containing ≤1% v/v Water) was added to the apical compartment insert, which was then placed into the companion plate.
At 120 min, the apical compartment inserts and the companion plates were separated, and apical and basolateral samples diluted for analysis. Test compound permeability was assessed in duplicate. Compounds of known permeability characteristics were run as controls on each assay plate.
Test and control compounds were quantified by LC-MS/MS cassette analysis using a 7-point calibration with appropriate dilution of the samples. Cyprotex generic analytical conditions were used. The starting concentration (CO) was determined from the dosing solution and the experimental recovery calculated from CO and both apical and basolateral compartment concentrations.
The integrity of the polarised cell monolayers throughout the experiment was checked by monitoring lucifer yellow permeation using fluorometric analysis. Permeation of this paracellular marker is low if monolayers have not been damaged. […] If this was not the case, then the result from the affected monolayer was excluded.
The determined concentration (nM≡pmol/mL) of each test sample receiver well is multiplied by the volume of the receiver compartment (apical=0.09 mL, basolateral=0.210 mL) to calculate the amount (pmol) of probe substrate permeating the monolayer.
Where dQ/dt is the rate of permeation of the drug across the cells, C0 is the donor compartment concentration at time zero and A is the area of the cell monolayer. C0 was obtained from analysis of the dosing solution.
An efflux ratio (ER) was calculated from mean A to B and B to A data. This is derived from:
Percentage recovery (mass balance) of the test compound or positive control substrate was calculated by dividing the sum of the amount (pmol) in the receiver and donor compartments post-incubation by the amount in the initial donor solution at time zero (C0) and expressing as a percentage.
The insert was inserted into the well of a plate to form an Apical chamber (above cells) and basolateral chamber (below cells), with a permeable membrane between the two layers. Compound was then added to either the apical or basolateral chamber and the passage of it monitored into the other chamber. Transfer of the test compound from the apical to basolateral chamber was indicative of cellular uptake, simulating transition of the compound from the intestinal lumen to the bloodstream by uptake receptors (Direction A). […] An Efflux ratio was then calculated from the values obtained for A2B and B2A transmission.
(In general: Caco-2 cells form a polarised layer with tight junctions and transporters.)

The conditions of series [4]: dogs; study of 2020 (Seljetun et al); cited from earlier work.
Series [5] deals with neonatal rat cardiac fibroblast cells. In words: Screening purified venom fractions for rat cardiac fibroblast toxicity (resazurin). It is filed as cell-based. How it is done: (§1) Hearts were collected from euthanised 1-2-day old neonatal rat pups and transferred into filter sterilised ice-cold Hanks balanced salt solution (HBSS) containing 2% Pen-strep. Hearts were washed in the HBSS, any non-heart tissue removed and then cut into 1-3 mm pieces and placed in 40 ml filter sterilised, ice cold 0.1% trypsin/HBSS. The heart pieces in trypsin were place in a large ice bucket and incubated overnight at 4° C. on a rocker with gentle agitation to allow the tissue to digest.
The following day, all trypsin was aspirated from the tissue and the tissue transferred evenly into 2 ml Eppendorf tubes. The tissue was then digested further using a 37° C. 1 mg/ml collagenase/HBSS (filter sterilised) solution. For each collagenase digestion, 2 ml of enzyme buffer was added to all Eppendorf tubes and the tubes incubated in a 37° C. heating block for 2 mins with 400 rpm agitation. The supernatant from the first two digestions was discarded. After each of the following digestion steps, the tissue was gently triturated using a pipette to release cells. Once trituration was complete the supernatant was retained, added to a tube containing 10 ml cell culture media and stored on ice.
All cell containing supernatants were filtered through a 250 μm cell strainer to remove any potentially undigested tissue and myocytes separated from cardiac fibroblast by spinning the supernatant at 1800 g for 45 mins through a Percoll gradient. […]
(§2) Neonatal rat cardiomyocytes and cardiac fibroblasts were treated with purified venom fractions suspected of being cardiotoxins at doses of 12.5, 7.5, 6 μg/ml, with rat cardiomyocytes being treated at additional concentrations of 3.5, 2.5, 1 and 0.5 μg/ml for 2 hs in a humidified incubator at 37° C., 5% CO2. […] The change in fluorescence of the resazurin dye was monitored over a 5 h timeframe using a BMG Fluostar plate reader. Percent inhibition of both cell types in response to each fraction at each dose were calculated and plotted graphically.

The subject of series [6] is Neonatal rat cardiomyocytes. Kind of series: Screening purified venom fractions for rat cardiomyocyte toxicity (resazurin). It is filed as cell-based. How it is done:
as §1
The following day, all trypsin was aspirated from the tissue and the tissue transferred evenly into 2 ml Eppendorf tubes. The tissue was then digested further using a 37° C. 1 mg/ml collagenase/HBSS (filter sterilised) solution. […]
as §2

Series [7] deals with rat neonatal cardiomyocyte cells. It is filed as cell-based. Particulars: 6 μg/ml, rat cardiomyocytes. How it is done:
Thermal stability of the six lead fractions was investigated. Aliquots of each fraction were heated in a heat block to 37° C. (unheated), 60° C., 80° C. and 100° C. before being used to treat rat neonatal cardiomyocyte cells at a dose of 6 μg/ml. Cardiomyocyte toxicity was assessed after 24 hrs of dosing at each temperature against a similar aliquot of each fraction that had been unheated before dosing. After 24 h, 160 μM Resazurin dye was added to all cells and the change in cardiomyocyte cell viability/metabolism monitored every hour up to 5 h post dye addition. An additional measurement was recorded 24 hs after the dye had been added.

Where [8] appears, read: any of the tested doses, up to 12.5 μg/ml.

Marks after values point to notes of the source that are not given here.

For the compound “N.atr_I28_R3 (LKCNKLVPLFYKTCPAGKNLCYKMFMVSNLTVPVKRGCIDVCPKSSLLVKYVCCNTDRCN)”, the “Highest Achieved Fold Increases in Beat Rate” value in series [1] (Dose 6 μg/ml) worked out at 5.35 fold. In series [1], the “fold increases to beat rate” value is listed as “greater than 5 fold”. The “toxicity in human IPSC-derived cells compared to rodent cardiomyocytes” value in series [2] (3.5 μg/ml) is “reduction in toxicity”.

Turning to `C[C@]12CC[C@@H]3c4ccc(OS(=O)(=O)O)cc4CC[C@H]3[C@@H]1CCC2=O` [Estrone 3-sulfate, estrone 3-sulfate], the “Mean % Recovery” value in series [3] (A2B) stood at 68.6%. In series [3] (A2B, 120 min, pH 7.4), the “Papp Mean” value is 0.225 ×10^−6 cms^−1 and the “Papp Rep 1” value is recorded as 0.225 ×10^−6 cms^−1. For the same compound, the “Mean % Recovery” value in series [3] (B2A) is recorded as 85.7%. In series [3] (B2A, 120 min, pH 7.4), the “Papp Mean” value is 34.9 ×10^−6 cms^−1, the “Papp Rep 1” value is given as 33.1 ×10^−6 cms^−1 and the “Papp Rep 2” value is recorded as 36.6 ×10^−6 cms^−1. Besides, the “ER (efflux ratio)” value in series [3] (from mean A to B and B to A data) is listed as 155 ^b.

Consider `O=c1oc2ccccc2c(O)c1C1CC(c2ccc(-c3ccccc3)cc2)Cc2ccccc21` (stereo not shown) [Difenacoum, 3-[3-p-diphenyl-1,2,3,4-hydronaphth-1-yl]-4-hydroxycoumarin], for which the “time present in dog faeces after a single ingestion” value in series [4] is given as more than 650 days.

On to “N.naj_I25_R3 (LKCNKLVPLFYKTCPAGKDLCYKMYMVATPKVPVKRGCIDVCPKSSLLVKYVCCNTDRCN)”, for which the “Highest Achieved Fold Increases in Beat Rate” value in series [1] (Dose 3.5 μg/ml) came out at 13.75 fold. In addition, the “fold increases to beat rate” value in series [1] is listed as “greater than 8.5 fold”. In addition, the “doses showing cardiac fibroblast toxicity” value in series [5] (neonatal rat cardiac fibroblasts) came out at 12.5 µg/mL. Besides, the “doses showing rat cardiomyocyte toxicity” value in series [6] (neonatal rat cardiomyocytes) was not below 6 µg/mL. For the same compound, in series [7] (37, 60, 80, 100° C., FIG. 4), the “thermal stability (change in cytotoxic activity after heating)” value is “no significant changes in the activity”.

“N.aan_I15_R4 (LKCHKLVPPVWKTCPEGKNLCYKMFMVSTSTVPVKRGCIDVCPKDSALVKYVCCSTDKCN)”: the “Highest Achieved Fold Increases in Beat Rate” value in series [1] (Dose 6 μg/ml) was determined as 3.50 fold. For the same compound, in series [1], the “fold increases to beat rate” value is given as “greater than 3.5 fold”. Also, the “toxicity to cardiac fibroblasts (in words)” value in series [5] (setting [8]) was “no visibly or detectible toxicity”. In addition, in series [6] (setting [8]), the “toxicity to rat cardiomyocytes (in words)” value is “no visibly or detectible toxicity”. In series [7] (fraction heated at 100° C. vs 37° C., 24 h), the “reduction of cardiomyocyte toxicity after heating” value was approximately 10%. Also, the “cytotoxicity against human IPSC-derived cardiomyocytes” value is “no observable cardiomyocyte cellular toxicity” in series [2] and “low levels of cytotoxicity” in series [2] (listed as N.ann_I15_R4).

Regarding `O=c1oc2ccccc2c(O)c1C1CC(c2ccc(-c3ccc(Br)cc3)cc2)Cc2ccccc21` (stereo not shown) [Brodifacoum, 3-[3-(4′-bromobiphenyl-4-yl)-1,2,3,4-tetrahydronaphth-1-yl]-4-hydroxycoumarin], the “time present in dog faeces after a single ingestion” value in series [4] was “more than 700 days”.

The values above are taken from patent publication US20250204535A1, “Rodenticide” (priority 2022, published 2025).
